Source: PubChem BioAssay (NCI)
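Results reflect a 48-hour exposure of cells in 96-well plates to compound at five concentrations. At the TGI there is no net growth.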

Experiments:
Assay in all cases: DTP human tumour cell line panel, 48 h
786-0 renal = test system: 786-0 renal
A498 renal = test system: A498 renal
A549 NSCLC = test system: A549 NSCLC
ACHN renal = test system: ACHN renal
BT-549 breast = test system: BT-549 breast
CAKI-1 renal = test system: CAKI-1 renal
COLO 205 colon = test system: COLO 205 colon
DU-145 prostate = test system: DU-145 prostate
EKVX NSCLC = test system: EKVX NSCLC
HCC-2998 colon = test system: HCC-2998 colon
HCT-116 colon = test system: HCT-116 colon
HCT-15 colon = test system: HCT-15 colon
HL-60(TB) leukemia = test system: HL-60(TB) leukemia
HOP-62 NSCLC = test system: HOP-62 NSCLC
HOP-92 NSCLC = test system: HOP-92 NSCLC
HS 578T breast = test system: HS 578T breast
HT29 colon = test system: HT29 colon
IGROV1 ovarian = test system: IGROV1 ovarian
K-562 leukemia = test system: K-562 leukemia
KM12 colon = test system: KM12 colon
LOX IMVI melanoma = test system: LOX IMVI melanoma
M14 melanoma = test system: M14 melanoma
MALME-3M melanoma = test system: MALME-3M melanoma
MCF7 breast = test system: MCF7 breast
MDA-MB-231 breast = test system: MDA-MB-231 breast
MDA-MB-435 = test system: MDA-MB-435
MDA-N = test system: MDA-N
MOLT-4 leukemia = test system: MOLT-4 leukemia
NCI-H226 lung = test system: NCI-H226 lung
NCI-H23 lung = test system: NCI-H23 lung
NCI-H460 lung = test system: NCI-H460 lung
NCI-H522 lung = test system: NCI-H522 lung
NCI/ADR-RES ovarian = test system: NCI/ADR-RES ovarian
OVCAR-3 ovarian = test system: OVCAR-3 ovarian
OVCAR-4 ovarian = test system: OVCAR-4 ovarian
OVCAR-5 ovarian = test system: OVCAR-5 ovarian
OVCAR-8 ovarian = test system: OVCAR-8 ovarian
PC-3 prostate = test system: PC-3 prostate
RPMI-8226 leukemia = test system: RPMI-8226 leukemia
RXF 393 renal = test system: RXF 393 renal
SF-268 CNS = test system: SF-268 CNS
SF-295 CNS = test system: SF-295 CNS
SF-539 CNS = test system: SF-539 CNS
SK-MEL-2 melanoma = test system: SK-MEL-2 melanoma
SK-MEL-28 melanoma = test system: SK-MEL-28 melanoma
SK-MEL-5 melanoma = test system: SK-MEL-5 melanoma
SK-OV-3 ovarian = test system: SK-OV-3 ovarian
SN12C renal = test system: SN12C renal
SNB-19 CNS = test system: SNB-19 CNS
SNB-75 CNS = test system: SNB-75 CNS
SR leukemia = test system: SR leukemia
SW-620 colon = test system: SW-620 colon
T-47D breast = test system: T-47D breast
TK-10 renal = test system: TK-10 renal
U251 CNS = test system: U251 CNS
UACC-257 melanoma = test system: UACC-257 melanoma
UACC-62 melanoma = test system: UACC-62 melanoma
UO-31 renal = test system: UO-31 renal

C=C[C@]1(C)C[C@@H](OC(=O)CO)[C@@]2(C)[C@H](C)CC[C@]3(CCC(=O)[C@H]32)[C@@H](C)[C@@H]1O
TGI (786-0 renal): > 100 µM
TGI (A498 renal): > 78.2 µM
TGI (A549 NSCLC): > 100 µM
TGI (ACHN renal): > 100 µM
TGI (BT-549 breast): > 100 µM
TGI (CAKI-1 renal): > 100 µM
TGI (COLO 205 colon): > 100 µM
TGI (DU-145 prostate): > 100 µM
TGI (EKVX NSCLC): > 100 µM
TGI (HCC-2998 colon): > 100 µM
TGI (HCT-116 colon): > 100 µM
TGI (HCT-15 colon): > 100 µM
TGI (HL-60(TB) leukemia): > 100 µM
TGI (HOP-62 NSCLC): > 100 µM
TGI (HOP-92 NSCLC): > 100 µM
TGI (HS 578T breast): 97 µM
TGI (HT29 colon): > 100 µM
TGI (IGROV1 ovarian): > 100 µM
TGI (K-562 leukemia): > 75.1 µM
TGI (KM12 colon): > 100 µM
TGI (LOX IMVI melanoma): > 31.6 µM
TGI (M14 melanoma): > 100 µM
TGI (MALME-3M melanoma): > 100 µM
TGI (MCF7 breast): > 100 µM
TGI (MDA-MB-231 breast): > 100 µM
TGI (MDA-MB-435): > 100 µM
TGI (MDA-N): > 100 µM
TGI (MOLT-4 leukemia): > 75.5 µM
TGI (NCI-H226 lung): > 100 µM
TGI (NCI-H23 lung): > 100 µM
TGI (NCI-H460 lung): > 100 µM
TGI (NCI-H522 lung): > 100 µM
TGI (NCI/ADR-RES ovarian): > 100 µM
TGI (OVCAR-3 ovarian): > 100 µM
TGI (OVCAR-4 ovarian): > 100 µM
TGI (OVCAR-5 ovarian): > 100 µM
TGI (OVCAR-8 ovarian): > 100 µM
TGI (PC-3 prostate): > 100 µM
TGI (RPMI-8226 leukemia): > 100 µM
TGI (RXF 393 renal): > 100 µM
TGI (SF-268 CNS): > 100 µM
TGI (SF-295 CNS): > 100 µM
TGI (SF-539 CNS): > 100 µM
TGI (SK-MEL-2 melanoma): > 100 µM
TGI (SK-MEL-28 melanoma): > 100 µM
TGI (SK-MEL-5 melanoma): > 100 µM
TGI (SK-OV-3 ovarian): > 100 µM
TGI (SN12C renal): > 100 µM
TGI (SNB-19 CNS): > 100 µM
TGI (SNB-75 CNS): > 100 µM
TGI (SR leukemia): > 74.2 µM
TGI (SW-620 colon): > 100 µM
TGI (T-47D breast): > 100 µM
TGI (TK-10 renal): > 100 µM
TGI (U251 CNS): > 100 µM
TGI (UACC-257 melanoma): > 100 µM
TGI (UACC-62 melanoma): > 50.3 µM
TGI (UO-31 renal): > 100 µM

Cc1c2cccc(Sc3ccccc3)c2c2c3c(cccc13)[S+](c1ccccc1)C2 (stereo unspecified)
TGI (786-0 renal): 13.9 µM
TGI (A498 renal): 8.32 µM
TGI (A549 NSCLC): 14.7 µM
TGI (ACHN renal): 12.7 µM
TGI (BT-549 breast): 9.87 µM
TGI (CAKI-1 renal): 11.4 µM
TGI (COLO 205 colon): 2.46 µM
TGI (DU-145 prostate): 15.3 µM
TGI (EKVX NSCLC): 19.5 µM
TGI (HCC-2998 colon): 4.49 µM
TGI (HCT-116 colon): 9.59 µM
TGI (HCT-15 colon): 27.8 µM
TGI (HL-60(TB) leukemia): 2.82 µM
TGI (HOP-62 NSCLC): 7.35 µM
TGI (HOP-92 NSCLC): 6.6 µM
TGI (HS 578T breast): 13.9 µM
TGI (HT29 colon): 7.38 µM
TGI (IGROV1 ovarian): 9.12 µM
TGI (K-562 leukemia): 11.2 µM
TGI (KM12 colon): 2.85 µM
TGI (LOX IMVI melanoma): 3.52 µM
TGI (M14 melanoma): 6.78 µM
TGI (MALME-3M melanoma): 4.67 µM
TGI (MCF7 breast): 8.93 µM
TGI (MDA-MB-231 breast): 5.68 µM
TGI (MDA-MB-435): 5.24 µM
TGI (MDA-N): 13.8 µM
TGI (MOLT-4 leukemia): 4.55 µM
TGI (NCI-H226 lung): 7.54 µM
TGI (NCI-H23 lung): 9.82 µM
TGI (NCI-H460 lung): 4.1 µM
TGI (NCI-H522 lung): 4.51 µM
TGI (NCI/ADR-RES ovarian): > 100 µM
TGI (OVCAR-3 ovarian): 6.01 µM
TGI (OVCAR-4 ovarian): 11.7 µM
TGI (OVCAR-5 ovarian): 12.1 µM
TGI (OVCAR-8 ovarian): 12.4 µM
TGI (PC-3 prostate): 5.71 µM
TGI (RPMI-8226 leukemia): 2.85 µM
TGI (RXF 393 renal): 14.9 µM
TGI (SF-268 CNS): 11.8 µM
TGI (SF-295 CNS): 6.33 µM
TGI (SF-539 CNS): 7.91 µM
TGI (SK-MEL-2 melanoma): 3.71 µM
TGI (SK-MEL-28 melanoma): 6.84 µM
TGI (SK-MEL-5 melanoma): 2.1 µM
TGI (SK-OV-3 ovarian): 6.58 µM
TGI (SN12C renal): 11.5 µM
TGI (SNB-19 CNS): 11.2 µM
TGI (SNB-75 CNS): 8.14 µM
TGI (SR leukemia): 4.91 µM
TGI (SW-620 colon): 16.7 µM
TGI (T-47D breast): 8.24 µM
TGI (TK-10 renal): 9.55 µM
TGI (U251 CNS): 9.41 µM
TGI (UACC-257 melanoma): 3.57 µM
TGI (UACC-62 melanoma): 3.67 µM
TGI (UO-31 renal): 8.28 µM
